Target: T1, Prostaglandin G/H synthase 2 (Homo sapiens, UniProt P35354)
T1 sequence (P35354 whole entry): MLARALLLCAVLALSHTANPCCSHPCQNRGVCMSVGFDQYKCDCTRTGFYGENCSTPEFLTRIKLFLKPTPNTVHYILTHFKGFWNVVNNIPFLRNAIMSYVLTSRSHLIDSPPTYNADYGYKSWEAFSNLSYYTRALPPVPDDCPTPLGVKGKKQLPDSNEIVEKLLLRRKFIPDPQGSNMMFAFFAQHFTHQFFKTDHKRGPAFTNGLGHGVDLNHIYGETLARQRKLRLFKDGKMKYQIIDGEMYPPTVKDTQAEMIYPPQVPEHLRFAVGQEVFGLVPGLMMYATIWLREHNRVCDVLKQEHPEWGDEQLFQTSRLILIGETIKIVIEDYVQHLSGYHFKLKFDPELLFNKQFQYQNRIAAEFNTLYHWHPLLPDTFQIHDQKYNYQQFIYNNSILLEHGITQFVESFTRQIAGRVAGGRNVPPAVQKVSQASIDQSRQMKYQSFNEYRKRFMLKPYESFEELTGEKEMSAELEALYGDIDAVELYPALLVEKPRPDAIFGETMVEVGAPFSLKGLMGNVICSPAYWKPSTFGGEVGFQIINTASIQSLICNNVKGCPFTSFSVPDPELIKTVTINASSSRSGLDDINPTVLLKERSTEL
Test: Inhibition of COX2 assessed as inhibition of PGE2 production using arachidonic acid as substrate after 10 mins by ELISA

Row | IC50 [µM] | Structure (SMILES)
1 | 7.5 | O=C(O)/C=C/c1ccc2c(c1)O[C@H](c1cc(O)cc(O)c1)[C@H](C(=O)O)O2 [CAFFEICINIC ACID]
2 | 52.6 | O=C(O)/C=C/c1ccc2c(c1)O[C@@H](C(=O)O)[C@@H](c1ccc(O)c(O)c1)O2 (relative stereo)
3 | 42.6 | O=C1O[C@@H](c2ccc(O)c(O)c2)[C@H](C(=O)O)/C1=C\c1ccc(O)c(O)c1 [PHELLINSIN A]
4 | 9.8 | O=C(O)/C=C/C12C=C(O)C(=O)C=C1C(=O)C1=Cc3cc(O)c(O)cc3O[C@@H](c3ccc(O)c(O)c3)[C@@H]12 (relative stereo)

Reference: ChEMBL document CHEMBL1938240, “Enzymatic transformation of caffeic acid with enhanced cyclooxygenase-2 inhibitory activity” (Bioorg Med Chem Lett, 2012)
